The record followed here is EP1978972B1, “USE OF ALKYLGLUCOSIDE ESTERS AS BETA-DEFENSIN INDUCERS” (Pierre Fabre Dermo-Cosmétique, priority 2006, dated 2007).

Assay [1] deals with hBD-3. Nature of the assay: Immunohistochemistry of hBD-3 peptide in skin explants. The assay is classed as cell-based, human. As to conditions: skin explant, qualitative. How it is done: (§1) Les échantillons inclus dans la résine Tissue Tek® sont coupés à froid (température de la chambre à -25°C et la température du porte-objet à - 28°C) à l'aide d'un cryostat (Leica CM 3050s, Nussloch). Les cryocoupes d'une épaisseur de 5 µm sont récupérées sur des lames porte-objet prétraitées, puis mises à sécher environ 2 h à température ambiante et stockées à -20°C pour une utilisation ultérieure. Avant de réaliser l'immuno-marquage, les coupes sont fixées à l'acétone à -20°C pendant 10 min, séchées et conservées à -20°C. Lors d'une première étape, les coupes sont hydratées puis incubées avec les anticorps primaires dirigés contre les peptides d'intérêt dilués dans du PBS. Les anticorps primaires utilisés sont les suivants : • Goat Anti-human BD-2 (500-P161G, Peprotech Inc) dilué au 1/50^e • Rabbit Anti-human defensin-3 (AB3478, Chemicon international) dilué au 1/1000^e • Rabbit Anti-human LL37 (G-075-06, Phoenix Pharmaceuticals Inc) dilué au 1/50^e
(§2) Pour révéler le complexe Antigène-Anticorps, le kit DAKO LSAB® (DAKO Corporation) est utilisé selon les recommandations du fournisseur. La révélation est réalisée à l'aide d'un substrat de la péroxydase : la 3,3'diaminobenzidine (DAB) (DAKO Corporation). […]

Assay [2] relates to S. aureus. Nature of the assay: Adhesion of S. aureus on skin explant (modified Franz cell), count of adherent bacteria. It counts as cell-based, Staphylococcus aureus. The text has this: Pour révéler le complexe Antigène-Anticorps, le kit DAKO LSAB® (DAKO Corporation) est utilisé selon les recommandations du fournisseur. La révélation est réalisée à l'aide d'un substrat de la péroxydase : la 3,3'diaminobenzidine (DAB) (DAKO Corporation). La réaction enzymatique est révélée par une coloration brune. • ➢L'adhésion des micro-organismes est réalisée dans une cellule à double compartimentation, de type cellule de Franz modifiée. • ➢Une suspension de S.aureus (CIP 53.154) équivalente à 0,5.10^7 micro-organismes est introduite au sein du compartiment supérieur de la cellule. Le dispositif est incubé de 2 h à 37°C sous une atmosphère à 5 % de CO2. A la fin de cette période d'incubation, le surnageant est retiré afin d'éliminer les bactéries non adhérentes. Les échantillons de peau sont ensuite rincés deux fois avec 1 ml de mélange DMEM/HAMF12. Un dénombrement bactérien à l'issue de cette étape donne la proportion de bactéries ayant adhéré à l'explant (T+2 h). Un témoin est réalisé dans le but de déterminer l'adhésion non spécifique des bactéries. • ➢La stimulation de l'expression des β-défensines cutanées précède l'étape d'adhésion. Son objectif est d'étudier l'impact de l'induction des peptides antimicrobiens par des actifs potentiels de type « alkyle mono- ou di-ester d'α,β-butylglucoside » sur l'adhésion de souches bactériennes. Le traitement est effectué en topique ou en systémique. Le temps de stimulation des explants cutanés est de 24 h à 37°C en présence de 5 % de CO2.
Pour analyse, les explants sont retirés de leur cellule, des punchs de diamètres différents (3 mm, 4 mm et 6 mm) sont effectués pour un test MTT de survie, les marquages immuno-histologiques et les analyses des transcrits par RT-PCR. Le reste de peau est utilisé pour une estimation de la flore bactérienne adhérente.
Le dénombrement de la flore bactérienne adhérente exogène par unité de surface de peau a été effectué selon deux méthodes : • par dénombrement bactérien sur milieu solide • par comptage de la radioactivité émise (la souche contaminante étant marquée au H^3) est effectuée. […]
Après une application topique de 5 h et plusieurs rinçages de la surface épidermique d'un explant cutané, l'effet du traitement par l'α,β-LBG brut sur l'adhésion de S.aureus sur ce même explant a été quantifié par le dénombrement des germes adhérents à l'issue d'une mise en contact de 2 h. […]
Après application topique et plusieurs rinçages de la surface épidermique des explants cutanés, l'effet du traitement par les isoformes de l'ester de laurate de butylglucoside pur à 90 %, séparées, α seul, β seul, ou en mélange α,β-LBG (56 % α/44 % β) sur l'adhésion de S. aureus sur l'épiderme a été comparé après quantification des germes adhérents par dénombrement.

For assay [3], the system named is S. aureus. Nature of the assay: Colonisation of skin explant by exogenous S. aureus during 24 h after adhesion step. It counts as cell-based, Staphylococcus aureus. As to conditions: systemic treatment, in words. How it is done: Il est par ailleurs possible d'observer la colonisation de l'explant par le germe exogène (S. aureus) après l'étape d'adhésion pendant 24 h. […] L'effet inverse est observé avec le traitement par le TNF-α, cytokine pro-inflammatoire, qui après avoir entraîné une forte chute de l'adhésion de S. aureus (Cf.III.4.2) ne permet pas une limitation de la croissance du germe pathogène sur l'explant et ceci au dépend du germe commensal S. epidermidis.
La figure 12 annexée illustre la comparaison de la colonisation d'une souche contaminante, S. aureus, avec celle d'une souche commensale, S. epidermis.

For assay [4], the system named is hBD-3. Put plainly: Immunohistochemistry of hBD-3 peptide in gingival explant, systemic treatment. It counts as cell-based, human. As to conditions: 30 µg/ml, 5 h, qualitative. How it is done:
Les explants gingivaux humains de taille variable et petite sont rincés dix fois dans du PBS sans antibiotiques puis mis en culture sur une grille afin d'éviter leur immersion totale, posés côté derme.
as §1
Pour révéler le complexe Antigène-Anticorps, le kit DAKO LSAB® (DAKO Corporation) est utilisé selon les recommandations du fournisseur. […]

The subject of assay [5] is hBD-3. Nature of the assay: Immunohistochemistry of hBD-3 peptide in reconstructed gingival epithelium. It counts as cell-based, human. As to conditions: vs untreated sample, qualitative. How it is done:
as §1, §2

For assay [6], the system named is S. aureus. Nature of the assay: Direct microbicidal activity and direct effect on adhesion of S. aureus. Further details: species or system Staphylococcus aureus. Conditions: at the concentrations used.

On to laurate de butylglucoside [αβ-LBG brut], for which the “production du peptide hBD-3 dans les couches supérieures de l'épiderme” value in the assay on hBD-3 [1] (systemic, 24 h) is “stimulation de la production”. Also, the “production du peptide hBD-3 dans les couches supérieures de l'épiderme” value in the assay with hBD-3 [1] (topical) is “stimulation de la production”. Moreover, in the assay with S. aureus [2] (systemic 30 µg/ml, separate compartments, vs unstimulated control), the “diminution de l'adhésion des germes sur l'explant” value is reported as 11%. For the same substance, the “baisse de l'adhésion de S. aureus” value in the assay on S. aureus [2] (topical 30 µg/ml for 5 h, then 2 h contact, vs untreated control) is on record as 20%. Also, in the assay with S. aureus [3], the “multiplication / croissance du germe pathogène (S. aureus) sur l'explant” value is “ralentit la multiplication du germe pathogène”. Besides, the “production du peptide hBD-3 dans les couches supérieures de l'épithélium gingival” value in the assay with hBD-3 [4] is given as “induction de la production du peptide hBD-3”. The “production du peptide hBD-3 par les cellules de l'épithélium gingival reconstruit” value with hBD-3 [5] is on record as “confirmer la production du peptide hBD-3”. In addition, in the assay with S. aureus [6], the activité microbicide directe result is recorded as “ni activité microbicide directe” and the “direct effect on adhésion de S. aureus” value is recorded as “ni effet sur l'adhésion de S. aureus”.
